Columns and labels:
Cf1 cell line = conditions: TC-100 + 10% FBS
Procedure: (§1) The dipteran (D. melanogaster) cell lines Kc1 and SL2, and the lepidopteran cell lines Sf9 (S. frugiperda), Ld652Y (L. dispar) and Cf1 (Choristoneura fumeferana) were tested for sensitivity to Zeocin in order to establish whether Zeocin was toxic in standard culture conditions to cell lines from these disparate insect orders. Zeocin is thought to exert its toxic effects by binding to DNA to induce double strand breaks. Such strand cleavage is thought to inhibit growth by disruption of DNA replication, which in turn interferes with subsequent cell division. Accordingly, cells already committed to division would not be expected to be affected by Zeocin until the next round of DNA replication; it would therefore be expected that cells treated with Zeocin may divide once, but will be unable to undergo further mitotic divisions since their DNA will not be intact.
(§2) In accordance with the current understanding of Zeocin's mechanism of action, the minimal inhibitory concentration of Zeocin is described herein as the amount of antibiotic required to limit the culture to one doubling. Growth curves for the determination of inhibitory concentrations of Zeocin in the Kc1, SL2 and Sf9 cell lines (FIG. 4a) were performed in rotating 1.5 ml microcentrifuge tubes containing 1 ml of TC-100 complete medium (pH=6.2) with 10% fetal bovine serum (Life Technologies, Gaithersburg, Md., U.S.A.), 0.5–1.0×10^6 cells and varying concentrations of Zeocin (obtained from Invitrogen, San Diego, Calif.) at 27° C. Samples were removed daily, stained with 0.4% trypan blue and the number of viable cells determined in quadruplicate using a hemocytometer. The minimal inhibitory Zeocin concentrations affecting Ld652Y and Cf1 cell lines were determined by seeding approximately 5,000 cells in a total volume of 200 μl TC-100 complete medium +10% fetal bovine serum+Zeocin into wells of 96 well microtitre plates.

Kc1 cell line = test system: Kc1 cell line
Procedure: as §1, §2

Ld652Y cell line = conditions: Zeocin 10 μg/ml
Procedure: as §1, §2

Sf9 cell line = conditions: TC-100 + 10% FBS, 27° C.
Procedure: as §1, §2

Procedure for SL2 cell line: The dipteran (D. melanogaster) cell lines Kc1 and SL2, and the lepidopteran cell lines Sf9 (S. frugiperda), Ld652Y (L. dispar) and Cf1 (Choristoneura fumeferana) were tested for sensitivity to Zeocin in order to establish whether Zeocin was toxic in standard culture conditions to cell lines from these disparate insect orders. […] Accordingly, cells already committed to division would not be expected to be affected by Zeocin until the next round of DNA replication; it would therefore be expected that cells treated with Zeocin may divide once, but will be unable to undergo further mitotic divisions since their DNA will not be intact.
In accordance with the current understanding of Zeocin's mechanism of action, the minimal inhibitory concentration of Zeocin is described herein as the amount of antibiotic required to limit the culture to one doubling. […] Samples were removed daily, stained with 0.4% trypan blue and the number of viable cells determined in quadruplicate using a hemocytometer.

Cc1c(N)nc([C@H](CC(N)=O)NC[C@H](N)C(N)=O)nc1C(=O)N[C@H](C(=O)N[C@H](C)[C@@H](O)[C@H](C)C(=O)N[C@H](C(=O)NCCC1=N[C@@H](c2nc(C(=O)NCCCCN=C(N)N)cs2)CS1)[C@@H](C)O)[C@@H](O[C@@H]1O[C@@H](CO)[C@@H](O)[C@H](O)[C@@H]1O[C@H]1O[C@H](CO)[C@@H](O)[C@H](OC(N)=O)[C@@H]1O)c1cnc[nH]1 [Zeocin]
Zeocin concentration required to completely inhibit further cell division (Cf1 cell line): at least 250 μg/ml | Zeocin concentration that inhibited more than one round of cell division (Kc1 cell line; TC-100 + 10% FBS, 27° C.): greater than 50 μg/ml | effect on growth rate (Kc1 cell line; Zeocin 10 μg/ml): dramatic reductions in growth rates | effect on growth rate (Ld652Y cell line): dramatic reductions in growth rates | Zeocin concentration required to completely inhibit further cell division (Sf9 cell line): at least 250 μg/ml | Zeocin concentration that inhibited more than one round of cell division (SL2 cell line; TC-100 + 10% FBS, 27° C.): > 75 mg/mL | effect on growth rate (SL2 cell line; Zeocin 10 μg/ml): dramatic reductions in growth rates | Zeocin concentration found to inhibit growth (Hi5 cell line): 800 µg/mL | Zeocin concentration found to inhibit growth (C6/36 cell line): 250 µg/mL
